Converted amounts (≈) assume the structure as drawn.
Experiments:
Escherichia coli [1] = experiment: Antibacterial activity against Escherichia coli ATCC 35218 at 10 ug/mL after 24 hrs by disc diffusion method; assay type: functional; conditions: ATCC 35218, 24 h, read-out: IZ
Candida albicans [2] = experiment: Antifungal activity against Candida albicans PYCC 3436 at 10 ug/mL after 72 hrs by agar cup plate method; assay type: functional; conditions: PYCC 3436, 72 h, read-out: IZ
Staphylococcus aureus [3] = experiment: Antibacterial activity against Staphylococcus aureus ATCC 6538 by twofold serial dilution technique; assay type: functional
Salmonella typhi [4] = experiment: Antibacterial activity against Salmonella typhi ATCC 6539 at 10 ug/mL after 24 hrs by disc diffusion method; assay type: functional, Salmonella enterica subsp. enterica serovar Typhi; conditions: Salmonella enterica, ATCC 6539, 24 h; read-out: IZ
Aspergillus niger [5] = experiment: Antifungal activity against Aspergillus niger ATCC 16404 by twofold serial dilution technique; assay type: functional
Salmonella typhi [6] = experiment: Antibacterial activity against Salmonella typhi ATCC 6539 by twofold serial dilution technique; assay type: functional, Salmonella enterica subsp. enterica serovar Typhi; conditions: Salmonella enterica
Aspergillus niger [7] = experiment: Antifungal activity against Aspergillus niger ATCC 16404 at 10 ug/mL after 72 hrs by agar cup plate method; assay type: functional; conditions: ATCC 16404, 72 h, read-out: IZ
Pseudomonas aeruginosa [8] = experiment: Antibacterial activity against Pseudomonas aeruginosa ATCC 9027 at 10 ug/mL after 24 hrs by disc diffusion method; assay type: functional; conditions: ATCC 9027, 24 h, read-out: IZ
Candida albicans [9] = experiment: Antifungal activity against Candida albicans ATCC 90028 at 10 ug/mL after 72 hrs by agar cup plate method; assay type: functional; conditions: ATCC 90028, 72 h, read-out: IZ
[10] = tested on: Lysinibacillus sphaericus; experiment: Antibacterial activity against Bacillus sphaericus ATCC 7031 at 10 ug/mL after 24 hrs by disc diffusion method; assay type: functional; conditions: ATCC 7031, 24 h, read-out: IZ
Bacillus subtilis [11] = experiment: Antibacterial activity against Bacillus subtilis ATCC 6631 by twofold serial dilution technique; assay type: functional
Staphylococcus aureus [12] = experiment: Antibacterial activity against Staphylococcus aureus ATCC 6538 at 10 ug/mL after 24 hrs by disc diffusion method; assay type: functional; conditions: ATCC 6538, 24 h, read-out: IZ
Aspergillus fumigatus [13] = experiment: Antifungal activity against Aspergillus fumigatus ATCC 28212 by twofold serial dilution technique; assay type: functional
Candida albicans [14] = experiment: Antifungal activity against Candida albicans ATCC 90028 by twofold serial dilution technique; assay type: functional
[15] = tested on: Lysinibacillus sphaericus; experiment: Antibacterial activity against Bacillus sphaericus ATCC 7031 by twofold serial dilution technique; assay type: functional
Candida albicans [16] = experiment: Antifungal activity against Candida albicans PYCC 3436 by twofold serial dilution technique; assay type: functional
Bacillus subtilis [17] = experiment: Antibacterial activity against Bacillus subtilis ATCC 6631 at 10 ug/mL after 24 hrs by disc diffusion method; assay type: functional; conditions: ATCC 6631, 24 h, read-out: IZ
Aspergillus fumigatus [18] = experiment: Antifungal activity against Aspergillus fumigatus ATCC 28212 at 10 ug/mL after 72 hrs by agar cup plate method; assay type: functional; conditions: ATCC 28212, 72 h, read-out: IZ
Escherichia coli [19] = experiment: Antibacterial activity against Escherichia coli ATCC 35218 by twofold serial dilution technique; assay type: functional
Pseudomonas aeruginosa [20] = experiment: Antibacterial activity against Pseudomonas aeruginosa ATCC 9027 by twofold serial dilution technique; assay type: functional

Row | SMILES | zone of inhibition at 10 µg/mL (Escherichia coli [1]) [mm] | zone of inhibition at 10 µg/mL (Candida albicans [2]) [mm] | MIC99 (Staphylococcus aureus [3]) [µg/mL] | zone of inhibition at 10 µg/mL (Salmonella typhi [4]) [mm] | MIC99 (Aspergillus niger [5]) [µg/mL] | MIC99 (Salmonella typhi [6]) [µg/mL] | zone of inhibition at 10 µg/mL (Aspergillus niger [7]) [mm] | zone of inhibition at 10 µg/mL (Pseudomonas aeruginosa [8]) [mm] | zone of inhibition at 10 µg/mL (Candida albicans [9]) [mm] | zone of inhibition at 10 µg/mL [10] [mm] | MIC99 (Bacillus subtilis [11]) [µg/mL] | zone of inhibition at 10 µg/mL (Staphylococcus aureus [12]) [mm] | MIC99 (Aspergillus fumigatus [13]) [µg/mL] | MIC99 (Candida albicans [14]) [µg/mL] | MIC99 [15] [µg/mL] | MIC99 (Candida albicans [16]) [µg/mL] | zone of inhibition at 10 µg/mL (Bacillus subtilis [17]) [mm] | zone of inhibition at 10 µg/mL (Aspergillus fumigatus [18]) [mm] | MIC99 (Escherichia coli [19]) [µg/mL] | MIC99 (Pseudomonas aeruginosa [20]) [µg/mL]
1 | O=[N+]([O-])c1ccc(C2ONC3=C2C(c2ccccc2)N(Cc2ccccc2)C2CCCCC32)cc1 (stereo not given) | 5 | 12 | 50 (≈ 107 µM) | 10 | 100 (≈ 214 µM) | 100 (≈ 214 µM) | 13 | 6 | 19 | 14 | 100 (≈ 214 µM) | 11 | 12.5 (≈ 26.7 µM) | 50 (≈ 107 µM) | 50 (≈ 107 µM) | 50 (≈ 107 µM) | 4 | 6 | 50 (≈ 107 µM) | 12.5 (≈ 26.7 µM)
2 | c1ccc(CN2C(c3ccccc3)C3=C(NOC3c3ccccn3)C3CCCCC32)cc1 (stereo not given) | 7 | 18 | 50 (≈ 118 µM) | 11 | 100 (≈ 236 µM) | 50 (≈ 118 µM) | 10 | 7 | 18 | 16 | 50 (≈ 118 µM) | 12 | 12.5 (≈ 29.5 µM) | 50 (≈ 118 µM) | 25 (≈ 59 µM) | 12.5 (≈ 29.5 µM) | 6 | 7 | 25 (≈ 59 µM) | 12.5 (≈ 29.5 µM)
3 | c1ccc(CN2C(c3ccccc3)C3=C(NOC3c3cccnc3)C3CCCCC32)cc1 (stereo not given) | 4 | 17 | 50 (≈ 118 µM) | 11 | > 100 | 100 (≈ 236 µM) | 8 | 4 | 17 | 13 | 100 (≈ 236 µM) | 11 | 12.5 (≈ 29.5 µM) | 50 (≈ 118 µM) | 50 (≈ 118 µM) | 12.5 (≈ 29.5 µM) | 3 | 6 | 100 (≈ 236 µM) | 50 (≈ 118 µM)
